The structures appear in SMILES notation. Read-outs that look alike come from different tables or passages of the source.

The subject of one test is A2780 cells. The test can be described thus: In-vitro cell proliferation assay (SRB, 72 hours). Format: cell-based. The settings on record: sulforhodamine B (SRB) assay. As for the experimental part:
In-Vitro Cell Proliferation Assay
After overnight incubation at 37° C. and 5% CO2, the compound titrations were performed in a separate dilution plate by serially diluting the compounds in DMSO to make a 1000× stock. The compounds were then further diluted to 10× final concentration in culture media, whereupon 20 μL of each dilution was added to the plated cells with controls (e.g. DMSO and blank) to make a final volume of 200 μL. The final DMSO concentration in each well was 0.1%. The plates were then incubated for 72 hours at 37° C. in a 5% CO2 incubator. The number of viable cells was then assessed using sulforhodamine B (SRB) assay. Cells were fixed at 4° C. for 1 hour with the addition of 50 μL 30% trichloroacetic acid (TCA) to make a final concentration of 6% TCA. The plates were washed four times with H2O and allowed to dry for at least 1 hour, whereupon 100 μL of a 4% SRB in 1% acetic acid solution was added to each well and incubated at room temperature for at least 30 minutes. The plates were then washed three times with 1% acetic acid, dried, and treated with 100 μL of 10 mM Tris-Base solution. The plates were then read in a microplate reader at an absorbance of 570 nm. Background was generated on a separate plate with media only.
Method for Determining % Inhibition
First, the signals from the background plate are averaged, then the background was subtracted from the test plates.
wherein x denotes the average signal of the compound-treated cells and y denotes the average signal of the DMSO-treated cells.
wherein X denotes the compound concentration 1, Y denotes the compound concentration 2, XX denotes the % inhibition at compound concentration 1 (X), and YY denotes the % inhibition at compound concentration 2 (Y).

Test [1] addresses T1, Recombinant His-tagged NAMPT (Homo sapiens, UniProt P43490).
T1 construct: His; host or cells: E. coli
The experiment in a line: Biochemical inhibition assay: NAMPT enzymatic reaction, NMN quantified by mass spectrometry. The following applies: 33 nM NAMPT, 1 μM NAM, 100 μM PRPP, 30 minutes at room temperature, read-out: Biochem IC50. As for the experimental part:
Biochemical Inhibition Assay
NAMPT Protein Purification
Recombinant His-tagged NAMPT was produced in E. coli cells, purified over a Ni column, and further purified over a size-exclusion column by XTAL Biostructures.
The NAMPT Enzymatic Reaction
The NAMPT enzymatic reactions were carried out in Buffer A (50 mM Hepes pH 7.5, 50 mM NaCl, 5 mM MgCl2, and 1 mM THP) in 96-well V-bottom plates. The compound titrations were performed in a separate dilution plate by serially diluting the compounds in DMSO to make a 100× stock. […] The compound and enzyme mix was incubated for 15 minutes at room temperature, then 10 μL of 10× substrate and co-factors in Buffer A were added to the test well to make a final concentration of 1 μM NAM, 100 μM 5-Phospho-D-ribose 1-diphosphate (PRPP), and 2.5 mM Adenosine 5′-triphosphate (ATP). The reaction was allowed to proceed for 30 minutes at room temperature, then was quenched with the addition of 11 μL of a solution of formic acid and L-Cystathionine to make a final concentration of 1% formic acid and 10 μM L-Cystathionine. Background and signal strength was determined by addition (or non-addition) of a serial dilution of NMN to a pre-quenched enzyme and cofactor mix.
A mass spectrometry-based assay was used to measure the Nampt reaction product (NMN) and the internal control (L-Cystathionine). NMN and L-Cystathionine were detected using the services of Biocius Lifesciences with the RapidFire system. In short, the NMN and L-Cystathionine are bound to a graphitic carbon cartridge in 0.1% formic acid, eluted in 30% acetonitrile buffer, and injected into a Sciex 4000 mass spectrometer. The components of the sample were ionized with electrospray ionization and the positive ions were detected. […] The fragments are quantified and the analyzed by the following method.
First the NMN signal is normalized to the L-Cystathionine signal by dividing the NMN signal by the L-Cystathionine signal for each well. The signal from the background wells are averaged and subtracted from the test plates.
Wherein x denotes the average signal of the compound treated wells and y denotes the average signal of the DMSO treated wells.
IC50s are Determined Using Excel and this Formula.
Wherein X denotes the compound concentration 1, Y denotes the compound concentration 2, XX denotes the % inhibition at compound concentration 1 (X), and YY denotes the % inhibition at compound concentration 2 (Y).

T1 sequence (P43490 whole entry): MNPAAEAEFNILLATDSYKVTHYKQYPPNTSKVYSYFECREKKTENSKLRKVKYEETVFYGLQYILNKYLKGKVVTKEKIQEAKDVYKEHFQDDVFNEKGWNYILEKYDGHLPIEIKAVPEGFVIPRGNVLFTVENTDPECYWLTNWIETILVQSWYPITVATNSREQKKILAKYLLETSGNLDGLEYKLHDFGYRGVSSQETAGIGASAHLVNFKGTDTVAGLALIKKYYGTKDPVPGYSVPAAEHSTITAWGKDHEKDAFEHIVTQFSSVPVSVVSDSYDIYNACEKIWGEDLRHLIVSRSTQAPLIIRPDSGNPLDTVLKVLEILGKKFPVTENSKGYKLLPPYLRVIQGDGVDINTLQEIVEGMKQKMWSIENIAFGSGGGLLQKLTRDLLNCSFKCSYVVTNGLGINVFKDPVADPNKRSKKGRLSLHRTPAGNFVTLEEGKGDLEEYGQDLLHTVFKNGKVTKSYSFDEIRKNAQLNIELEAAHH

On to `O=C(NCCCCC1CCN(C(=O)c2ccoc2)CC1)c1cc2cnccc2[nH]1` [N-(4-{1-[(furan-3-yl)carbonyl]piperidin-4-yl}butyl)-1H-pyrrolo[3,2-c]pyridine-2-carboxamide], for which the IC50 with A2780 cells (Homo sapiens) was found to be 10.1 nM; in test [1] (2.5 mM ATP), 9.1 nM.

`O=C(NCCCCC1CCN(C(=O)c2cc(Cl)cc(Cl)c2)CC1)c1cc2cnccc2[nH]1` [N-(4-{1-[(3,5-dichlorophenyl)carbonyl]piperidin-4-yl}butyl)-1H-pyrrolo[3,2-c]pyridine-2-carboxamide]: the IC50 in the test with A2780 cells (Homo sapiens) was 13 nM; in test [1] (2.5 mM ATP), 81.3 nM.

Take `O=C(NCCCCC1CCN(C(=O)c2cc3cnccc3[nH]2)CC1)c1cc2cnccc2[nH]1` [N-{4-[1-({1H-pyrrolo[3,2-c]pyridin-2-yl}carbonyl)piperidin-4-yl]butyl}-1H-pyrrolo[3,2-c]pyridine-2-carboxamide]: the IC50 in the test with A2780 cells (Homo sapiens) stood at 11.3 nM; in test [1] (2.5 mM ATP) it was 20.9 nM.

For `O=C(NCCCCC1CCN(C(=O)c2ccc3ncsc3c2)CC1)c1cc2cnccc2[nH]1` [N-(4-{1-[(1,3-benzothiazol-6-yl)carbonyl]piperidin-4-yl}butyl)-1H-pyrrolo[3,2-c]pyridine-2-carboxamide], the IC50 with A2780 cells (Homo sapiens) amounted to 12.6 nM; in test [1] (2.5 mM ATP), 72.7 nM.

As for `Cc1cnc(C(=O)N2CCC(CCCCNC(=O)c3ccc4nccn4c3)CC2)cn1` [N-(4-{1-[(5-methylpyrazin-2-yl)carbonyl]piperidin-4-yl}butyl)imidazo[1,2-a]pyridine-6-carboxamide], the IC50 was 66.7 nM in the test on A2780 cells (Homo sapiens) and 10.9 nM in test [1] (2.5 mM ATP).

As for `O=C(NCCCCC1CCN(C(=O)c2ccc(Cl)cc2)CC1)c1ccc2nccn2c1` [N-(4-{1-[(4-chlorophenyl)carbonyl]piperidin-4-yl}butyl)imidazo[1,2-a]pyridine-6-carboxamide], the results for the IC50 (in the test on A2780 cells (Homo sapiens); in test [1] (2.5 mM ATP)) were 100 to 1000 nM and 84.6 nM, respectively.

As for `COc1ccc(C(=O)N2CCC(CCCCNC(=O)c3cc4ccncc4s3)CC2)cc1OC` [N-(4-{1-[(3,4-dimethoxyphenyl)carbonyl]piperidin-4-yl}butyl)thieno[2,3-c]pyridine-2-carboxamide], the IC50 in the test on A2780 cells (Homo sapiens) worked out at 6.9 nM; in test [1] (2.5 mM ATP) it was 32.6 nM.

For `COc1cc(OC)cc(C(=O)N2CCC(CCCCNC(=O)c3cc4cnccc4[nH]3)CC2)c1` [N-(4-{1-[(3,5-dimethoxyphenyl)carbonyl]piperidin-4-yl}butyl)-1H-pyrrolo[3,2-c]pyridine-2-carboxamide], the IC50 in the test on A2780 cells (Homo sapiens) was found to be 2.6 nM; in test [1] (2.5 mM ATP), 74.1 nM.

Regarding `O=C(NCCCCC1CCN(C(=O)c2cccc(Cl)c2)CC1)c1cc2ccncc2s1` [N-(4-{1-[(3-chlorophenyl)carbonyl]piperidin-4-yl}butyl)thieno[2,3-c]pyridine-2-carboxamide], the concentration for half-maximal inhibition (IC50) in the test on A2780 cells (Homo sapiens) amounted to 45.5 nM; in test [1] (2.5 mM ATP), 33.4 nM.

`O=C(NCCCCC1CCN(C(=O)c2cc3ccccc3s2)CC1)c1ccc2nccn2c1` [N-(4-{1-[(1-benzothiophen-2-yl)carbonyl]piperidin-4-yl}butyl)imidazo[1,2-a]pyridine-6-carboxamide]: the IC50 came out at 71.8 nM with A2780 cells (Homo sapiens) and 25.8 nM in test [1] (2.5 mM ATP).

In the case of `O=C(NCCCCC1CCN(C(=O)c2ccc(C(F)(F)F)nc2)CC1)c1cc2cnccc2[nH]1` [N-[4-(1-{[6-(trifluoromethyl)pyridin-3-yl]carbonyl}piperidin-4-yl)butyl]-1H-pyrrolo[3,2-c]pyridine-2-carboxamide], the concentration for half-maximal inhibition (IC50) was determined as 47.6 nM with A2780 cells (Homo sapiens) and 278 nM in test [1] (2.5 mM ATP).

As to `O=C(NCCCCC1CCN(C(=O)c2ccccn2)CC1)c1ccc2nccn2c1` [N-(4-{1-[(pyridin-2-yl)carbonyl]piperidin-4-yl}butyl)imidazo[1,2-a]pyridine-6-carboxamide], the IC50 worked out at 13.5 nM in the test with A2780 cells (Homo sapiens) and 36.4 nM in test [1] (2.5 mM ATP).

With `O=C(NCCCCC1CCN(C(=O)c2ccccc2OC(F)(F)F)CC1)c1cc2ccncc2s1` [N-[4-(1-{[2-(trifluoromethoxy)phenyl]carbonyl}piperidin-4-yl)butyl]thieno[2,3-c]pyridine-2-carboxamide], the IC50 came out at 3.1 nM with A2780 cells (Homo sapiens) and 10.4 nM in test [1] (2.5 mM ATP).

In the case of `COc1ccc(OC)c(S(=O)(=O)N2CCC(CCCCNC(=O)c3cc4cnccc4[nH]3)CC2)c1` [N-(4-{1-[(2,5-dimethoxybenzene)sulfonyl]piperidin-4-yl}butyl)-1H-pyrrolo[3,2-c]pyridine-2-carboxamide], the concentration for half-maximal inhibition (IC50) in the test on A2780 cells was found to be 1.8 nM; in test [1] ([…] ATP), 28.4 nM.

In the case of `O=C(NCCCCC1CCN(C(=O)c2cccnc2)CC1)c1cc2cnccc2[nH]1` [N-(4-{1-[(pyridin-3-yl)carbonyl]piperidin-4-yl}butyl)-1H-pyrrolo[3,2-c]pyridine-2-carboxamide], the 50% inhibitory concentration (IC50) with A2780 cells (Homo sapiens) stood at 23.1 nM; in test [1] (2.5 mM ATP), 98.6 nM.

For the molecule `CC(C)c1ccc(C(=O)N2CCC(CCCCNC(=O)c3ccc4nccn4c3)CC2)cn1` [N-[4-(1-{[6-(propan-2-yl)pyridin-3-yl]carbonyl}piperidin-4-yl)butyl]imidazo[1,2-a]pyridine-6-carboxamide], the values for the IC50 (in the test with A2780 cells (Homo sapiens); in test [1] (2.5 mM ATP)) were 26.1 nM and 38.7 nM, respectively.

As for `O=C(NCCCCC1CCN(C(=O)c2cc3ccccc3s2)CC1)c1cc2cnccc2[nH]1` [N-(4-{1-[(1-benzothiophen-2-yl)carbonyl]piperidin-4-yl}butyl)-1H-pyrrolo[3,2-c]pyridine-2-carboxamide], the IC50 amounted to 69.9 nM in the test with A2780 cells (Homo sapiens) and 124 nM in test [1] (2.5 mM ATP).

On to `O=C(NCCCCC1CCN(C(=O)c2cc3cc(F)ccc3[nH]2)CC1)c1cc2cnccc2[nH]1` [N-(4-{1-[(5-fluoro-1H-indol-2-yl)carbonyl]piperidin-4-yl}butyl)-1H-pyrrolo[3,2-c]pyridine-2-carboxamide], for which the figures for the half-inhibitory concentration (IC50) (with A2780 cells (Homo sapiens); in test [1] (2.5 mM ATP)) were 100 to 1000 nM and 97.1 nM, respectively.

For `O=C(NCCCCC1CCN(C(=O)c2ccoc2)CC1)c1cc2ccncc2s1` [N-(4-{1-[(furan-3-yl)carbonyl]piperidin-4-yl}butyl)thieno[2,3-c]pyridine-2-carboxamide], the IC50 is 6 nM in the test on A2780 cells (Homo sapiens) and 4 nM in test [1] (2.5 mM ATP).

As to `Cn1c(C(=O)N2CCC(CCCCNC(=O)c3ccc4nccn4c3)CC2)cc2ccccc21` [N-(4-{1-[(1-methyl-1H-indol-2-yl)carbonyl]piperidin-4-yl}butyl)imidazo[1,2-a]pyridine-6-carboxamide], the concentration for half-maximal inhibition (IC50) with A2780 cells (Homo sapiens) came out at 55.1 nM; in test [1] (2.5 mM ATP), 124 nM.

In the case of `COc1cccc(OC)c1C(=O)N1CCC(CCCCNC(=O)c2cc3ccncc3s2)CC1` [N-(4-{1-[(2,6-dimethoxyphenyl)carbonyl]piperidin-4-yl}butyl)thieno[2,3-c]pyridine-2-carboxamide], the half-inhibitory concentration (IC50) was 1.2 nM with A2780 cells (Homo sapiens) and 5.6 nM in test [1] (2.5 mM ATP).

Take `O=C(NCCCCC1CCN(C(=O)c2ccc(C(F)(F)F)nc2)CC1)c1cc2ccncc2s1` [N-[4-(1-{[6-(trifluoromethyl)pyridin-3-yl]carbonyl}piperidin-4-yl)butyl]thieno[2,3-c]pyridine-2-carboxamide]: the half-maximal inhibitory concentration (IC50) with A2780 cells (Homo sapiens) was determined as 414 nM; in test [1] (2.5 mM ATP) it was 90.3 nM.

For `CSc1ncccc1C(=O)N1CCC(CCCCNC(=O)c2ccc3nccn3c2)CC1` [N-[4-(1-{[2-(methylsulfanyl)pyridin-3-yl]carbonyl}piperidin-4-yl)butyl]imidazo[1,2-a]pyridine-6-carboxamide], the IC50 in the test on A2780 cells (Homo sapiens) turned out to be 0.7 nM; in test [1] (2.5 mM ATP), 5.5 nM.
